Experimental data published in ChEMBL document CHEMBL1201862, “PubChem BioAssay data set” (2004).
Calls of active or inactive are those of the source.

Columns and labels:
Type in all cases: functional
[1] = biological target: DNA dC->dU-editing enzyme APOBEC-3A (Homo sapiens, UniProt P31941); assay: Dose Response confirmation of small molecule APOBEC3A DNA Deaminase Inhibitors via a fluorescence-based single-stranded DNA deaminase assay. [Related pubchem assays (depositor defined):AID493011, AID493024]
Sequence of DNA dC->dU-editing enzyme APOBEC-3A (P31941 whole entry): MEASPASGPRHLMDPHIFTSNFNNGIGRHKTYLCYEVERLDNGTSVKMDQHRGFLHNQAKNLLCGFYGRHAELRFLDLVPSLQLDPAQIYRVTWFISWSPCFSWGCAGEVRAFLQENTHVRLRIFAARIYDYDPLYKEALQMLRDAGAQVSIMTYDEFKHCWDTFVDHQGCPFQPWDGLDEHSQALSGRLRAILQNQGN

[2] = biological target: DNA dC->dU-editing enzyme APOBEC-3G (Homo sapiens, UniProt Q9HC16);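 note: Dose-response counterscreen measuring inhibition of APOBEC3G DNA deaminase activity, run while confirming APOBEC3A inhibitors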
Sequence of DNA dC->dU-editing enzyme APOBEC-3G (Q9HC16 whole entry, the tested form may be a part): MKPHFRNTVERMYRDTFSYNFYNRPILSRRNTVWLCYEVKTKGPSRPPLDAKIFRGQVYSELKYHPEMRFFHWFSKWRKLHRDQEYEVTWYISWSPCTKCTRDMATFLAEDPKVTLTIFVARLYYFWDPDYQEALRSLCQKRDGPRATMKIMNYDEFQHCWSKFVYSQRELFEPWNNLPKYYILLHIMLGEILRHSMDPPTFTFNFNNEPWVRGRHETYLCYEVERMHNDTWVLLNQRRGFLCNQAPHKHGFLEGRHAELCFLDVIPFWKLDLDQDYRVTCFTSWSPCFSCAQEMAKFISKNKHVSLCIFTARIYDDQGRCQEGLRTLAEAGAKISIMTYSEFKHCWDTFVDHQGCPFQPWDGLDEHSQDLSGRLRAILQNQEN

[3] = biological target: T1, Carboxy-terminal domain RNA polymerase II polypeptide A small phosphatase 1 (Homo sapiens, UniProt Q9GZU7); assay: inhibitors of CTDSP1, concentration-response testing, biochemical assay, absorbance-based, actives from ultra-high-throughput screening (AID 540297)
T1 sequence (Q9GZU7 whole entry): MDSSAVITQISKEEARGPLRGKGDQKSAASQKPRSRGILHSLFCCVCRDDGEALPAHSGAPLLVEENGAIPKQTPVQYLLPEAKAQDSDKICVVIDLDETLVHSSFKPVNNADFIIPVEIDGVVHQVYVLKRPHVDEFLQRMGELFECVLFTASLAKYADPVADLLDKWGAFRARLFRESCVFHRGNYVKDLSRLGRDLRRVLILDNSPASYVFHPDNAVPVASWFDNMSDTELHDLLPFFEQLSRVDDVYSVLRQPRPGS

[4] = biological target: Tyrosine-protein phosphatase non-receptor type 11 (Homo sapiens, UniProt Q06124); assay: SHP2 phosphatase inhibition, dose response, selectivity assay for STEP inhibitor project, biochemical (AID 602367); conditions: read-out: IC50_Mean
Sequence of Tyrosine-protein phosphatase non-receptor type 11 (Q06124 whole entry): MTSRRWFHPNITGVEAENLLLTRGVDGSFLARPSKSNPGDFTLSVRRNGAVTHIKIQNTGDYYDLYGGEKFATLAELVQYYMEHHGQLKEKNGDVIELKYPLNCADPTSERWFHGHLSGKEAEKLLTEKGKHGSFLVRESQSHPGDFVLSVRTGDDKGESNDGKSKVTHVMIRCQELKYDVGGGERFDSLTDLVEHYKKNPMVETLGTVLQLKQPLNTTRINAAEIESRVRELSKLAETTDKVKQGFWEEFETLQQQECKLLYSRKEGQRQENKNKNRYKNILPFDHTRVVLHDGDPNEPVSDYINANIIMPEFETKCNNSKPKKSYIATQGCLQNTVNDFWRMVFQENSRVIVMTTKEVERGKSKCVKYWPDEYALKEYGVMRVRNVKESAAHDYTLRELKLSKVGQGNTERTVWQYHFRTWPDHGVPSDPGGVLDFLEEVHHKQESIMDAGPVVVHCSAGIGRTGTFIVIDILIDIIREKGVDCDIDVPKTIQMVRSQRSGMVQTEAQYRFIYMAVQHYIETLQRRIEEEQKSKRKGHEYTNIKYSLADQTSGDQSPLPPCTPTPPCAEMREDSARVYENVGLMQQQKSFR

[5] = biological target: Tyrosine-protein phosphatase non-receptor type 5 (Homo sapiens, UniProt P54829); assay: STEP phosphatase inhibitors, confirmation, biochemical, fluorescence intensity, uHTS hits (AID 602372); conditions: read-out: IC50_Mean
Sequence of Tyrosine-protein phosphatase non-receptor type 5 (P54829 whole entry): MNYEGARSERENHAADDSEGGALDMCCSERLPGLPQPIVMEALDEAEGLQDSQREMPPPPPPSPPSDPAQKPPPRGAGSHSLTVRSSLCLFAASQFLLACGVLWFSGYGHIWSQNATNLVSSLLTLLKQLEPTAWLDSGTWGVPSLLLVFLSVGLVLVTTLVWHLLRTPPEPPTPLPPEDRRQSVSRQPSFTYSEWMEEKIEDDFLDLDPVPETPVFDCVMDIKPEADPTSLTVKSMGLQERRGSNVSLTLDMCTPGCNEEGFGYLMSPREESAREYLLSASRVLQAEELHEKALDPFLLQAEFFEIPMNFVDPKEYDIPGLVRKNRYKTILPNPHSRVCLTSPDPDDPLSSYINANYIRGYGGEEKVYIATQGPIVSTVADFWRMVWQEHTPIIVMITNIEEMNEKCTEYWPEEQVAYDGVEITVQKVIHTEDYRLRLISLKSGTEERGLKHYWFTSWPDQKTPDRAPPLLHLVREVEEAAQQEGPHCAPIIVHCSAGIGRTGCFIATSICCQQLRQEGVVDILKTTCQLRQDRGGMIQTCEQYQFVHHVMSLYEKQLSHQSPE

[6] = biological target: Dual specificity protein phosphatase 3 (Homo sapiens, UniProt P51452); assay: VHR phosphatase inhibition, dose response, selectivity assay for STEP inhibitor project, biochemical (AID 602374); conditions: read-out: IC50_Mean
Sequence of Dual specificity protein phosphatase 3 (P51452 whole entry): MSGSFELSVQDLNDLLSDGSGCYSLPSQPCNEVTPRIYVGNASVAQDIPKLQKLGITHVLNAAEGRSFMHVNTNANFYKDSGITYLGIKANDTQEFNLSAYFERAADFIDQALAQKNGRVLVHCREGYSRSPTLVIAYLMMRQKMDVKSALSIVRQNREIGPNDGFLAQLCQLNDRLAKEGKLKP

Cannabinoid receptor 2 [7] = biological target: T2, Cannabinoid receptor 2 (Homo sapiens, UniProt P34972); assay: SAR analysis of antagonists of the Cannabinoid Receptor 2 using an Image-Based Assay - Set 2. [Related pubchem assays (depositor defined):AID1961, AID1965]
T2 sequence (P34972 whole entry): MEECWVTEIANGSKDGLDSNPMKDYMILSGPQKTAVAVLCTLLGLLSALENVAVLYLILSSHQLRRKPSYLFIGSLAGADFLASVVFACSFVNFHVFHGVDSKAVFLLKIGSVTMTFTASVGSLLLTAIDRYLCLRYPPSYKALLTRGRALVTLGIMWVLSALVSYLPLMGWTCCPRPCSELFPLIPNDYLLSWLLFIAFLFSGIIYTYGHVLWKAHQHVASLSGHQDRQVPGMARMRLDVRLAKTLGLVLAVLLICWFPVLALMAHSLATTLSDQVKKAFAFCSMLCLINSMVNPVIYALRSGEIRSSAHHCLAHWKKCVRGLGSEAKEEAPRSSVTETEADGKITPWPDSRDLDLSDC

[8] = biological target: G-protein coupled receptor 55 (Homo sapiens, UniProt Q9Y2T6); assay: SAR analysis of selective Agonists of GPR55 using an Image-Based Assay - Set 2. [Related pubchem assays (depositor defined):AID1961, AID1965]
Sequence of G-protein coupled receptor 55 (Q9Y2T6 whole entry): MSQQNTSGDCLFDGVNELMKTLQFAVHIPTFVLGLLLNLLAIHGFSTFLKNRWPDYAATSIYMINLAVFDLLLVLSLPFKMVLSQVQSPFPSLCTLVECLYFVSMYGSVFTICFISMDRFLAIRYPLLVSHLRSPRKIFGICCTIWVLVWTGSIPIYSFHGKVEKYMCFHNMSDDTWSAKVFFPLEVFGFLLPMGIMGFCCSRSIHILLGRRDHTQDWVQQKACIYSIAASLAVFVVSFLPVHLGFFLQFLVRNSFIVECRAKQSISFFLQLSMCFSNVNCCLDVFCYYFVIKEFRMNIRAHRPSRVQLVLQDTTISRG

Cannabinoid receptor 2 [9] = biological target: T2, Cannabinoid receptor 2; assay: SAR analysis of agonists of the Cannabinoid Receptor 2 using an Image-Based Assay - Set 2. [Related pubchem assays (depositor defined):AID1961, AID1965]
[10] = biological target: T3, G-protein coupled receptor 35 (Homo sapiens, UniProt Q9HC97); assay: SAR analysis of Agonists of the GPR35 Receptor using an Image-Based Assay - Set 3. [Related pubchem assays (depositor defined):AID1961, AID1965]
T3 sequence (Q9HC97 whole entry): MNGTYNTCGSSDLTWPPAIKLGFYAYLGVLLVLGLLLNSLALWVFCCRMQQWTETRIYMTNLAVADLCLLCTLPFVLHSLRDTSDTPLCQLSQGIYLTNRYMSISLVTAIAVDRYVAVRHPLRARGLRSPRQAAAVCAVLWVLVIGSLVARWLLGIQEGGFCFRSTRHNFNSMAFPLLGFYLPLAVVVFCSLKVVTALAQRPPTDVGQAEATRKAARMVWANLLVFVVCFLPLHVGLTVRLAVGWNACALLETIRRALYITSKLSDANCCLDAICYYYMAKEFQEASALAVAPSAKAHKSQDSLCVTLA

Cannabinoid receptor 1 [11] = biological target: T4, Cannabinoid receptor 1 (Homo sapiens, UniProt P21554); assay: SAR analysis of antagonists of the Cannabinoid Receptor 1 using an Image-Based Assay - Set 3. [Related pubchem assays (depositor defined):AID1961, AID1965]
T4 sequence (P21554 whole entry): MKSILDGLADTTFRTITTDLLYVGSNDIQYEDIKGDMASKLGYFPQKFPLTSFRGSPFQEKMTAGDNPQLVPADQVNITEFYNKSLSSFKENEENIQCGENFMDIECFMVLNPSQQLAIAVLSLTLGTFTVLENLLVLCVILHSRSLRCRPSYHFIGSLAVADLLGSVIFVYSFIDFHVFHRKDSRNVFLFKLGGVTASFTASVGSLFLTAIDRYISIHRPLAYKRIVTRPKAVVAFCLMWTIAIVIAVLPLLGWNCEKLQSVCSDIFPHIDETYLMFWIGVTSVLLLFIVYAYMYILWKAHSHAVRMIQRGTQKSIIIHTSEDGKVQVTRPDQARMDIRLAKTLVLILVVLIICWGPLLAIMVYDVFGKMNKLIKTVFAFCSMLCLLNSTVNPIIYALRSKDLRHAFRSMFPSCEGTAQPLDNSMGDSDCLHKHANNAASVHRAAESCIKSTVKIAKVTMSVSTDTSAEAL

Cannabinoid receptor 1 [12] = biological target: T4, Cannabinoid receptor 1; assay: SAR analysis of agonists of the Cannabinoid Receptor 1 using an Image-Based Assay - Set 3. [Related pubchem assays (depositor defined):AID1961, AID1965]
[13] = biological target: T3, G-protein coupled receptor 35; assay: SAR analysis of Antagonists of the GPR35 Receptor using an Image-Based Assay - Set 4. [Related pubchem assays (depositor defined):[…]]
Ion channel NompC = Ion channel NompC (Danio rerio, UniProt Q7T1G6); assay: Dose response cell-based high-throughput screening assay for agonists of the transient receptor potential channel N1 (TRPN1). [Related pubchem assays (depositor defined):AID1424, AID1448]
Mucolipin-3 = Mucolipin-3 (Homo sapiens, UniProt Q8TDD5); assay: Fluorescence counterscreen assay for […] agonists: dose response cell-based high-throughput screening assay to identify agonists of the transient receptor potential channel ML3 (TRPML3). [Related pubchem assays: 1424, 1448 ]
Sequence of Mucolipin-3 (Q8TDD5 whole entry): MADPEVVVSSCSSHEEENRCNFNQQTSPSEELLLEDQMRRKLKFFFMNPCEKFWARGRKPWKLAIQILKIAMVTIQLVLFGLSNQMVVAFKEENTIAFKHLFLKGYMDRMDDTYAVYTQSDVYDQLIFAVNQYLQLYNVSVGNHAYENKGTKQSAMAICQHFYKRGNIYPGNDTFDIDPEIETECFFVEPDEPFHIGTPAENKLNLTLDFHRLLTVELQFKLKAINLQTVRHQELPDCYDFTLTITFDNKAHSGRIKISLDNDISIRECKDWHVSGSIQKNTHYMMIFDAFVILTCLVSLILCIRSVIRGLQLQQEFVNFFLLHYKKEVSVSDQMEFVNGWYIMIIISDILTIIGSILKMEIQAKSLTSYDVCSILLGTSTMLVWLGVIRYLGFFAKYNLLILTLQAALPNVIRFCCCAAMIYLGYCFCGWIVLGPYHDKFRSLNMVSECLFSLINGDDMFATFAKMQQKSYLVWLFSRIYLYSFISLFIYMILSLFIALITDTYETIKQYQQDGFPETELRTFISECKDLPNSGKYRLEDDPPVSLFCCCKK

COc1cccc(N2[C@@H](CC(=O)O)c3ccc(/C=C/C(=O)O)cc3S2(=O)=O)c1
IC50 [1]: 12.2 µM (active) | IC50 [2]: 41.2 µM (active) | IC50 [3]: 2.88 µM (active) | IC50 [4]: 0.933 µM (active) | IC50 [5]: 52.1 µM (inactive) | IC50 [6]: 2.49 µM (active)

COc1ccc(S(=O)(=O)N2CCOCC2)cc1NC(=O)c1ccc(OC(F)F)cc1
IC50 (Cannabinoid receptor 2 [7]): > 32 µM (inactive) | EC50 [8]: > 32 µM (inactive) | EC50 (Cannabinoid receptor 2 [9]): > 32 µM (inactive) | EC50 [10]: > 32 µM (inactive) | IC50 (Cannabinoid receptor 1 [11]): > 32 µM (inactive) | EC50 (Cannabinoid receptor 1 [12]): > 32 µM (inactive) | IC50 [13]: > 32 µM (inactive)

CCN1CCN(CCNC(=O)c2cn(Cc3ccccc3F)nn2)CC1
EC50 (Ion channel NompC): > 29.9 µM (inactive) | EC50 (Mucolipin-3): > 29.9 µM (not active)
